Consider 8 compounds from US11548900B2, “Oxazino-quinazoline and oxazino-quinoline type compound, preparation method and uses thereof” (BEIJING SCITECH-MQ PHARMACEUTICALS LIMITED, priority 2018, dated 2023).

What is called IC50 is the concentration needed to halve the response being measured. A high value points to weaker potency in that assay.

One assay concerns the target HER2 kinase (Homo sapiens (Human), UniProt P04626). Kind of assay: Inhibition of HER2 kinase activity (ULight-labeled PolyGT substrate). Type of assay: biochemical. As to conditions: HER2 kinase 10 nM, ATP 10 μM, 2 hours. The gist of the method: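 Eleven-point 3-fold dilutions (0.042 nM–2.5 μM final, 1% DMSO) tested in duplicate against 10 nM HER2 with 100 nM ULight-labelled PolyGT and 10 μM ATP. Reaction ran 2 h at RT after 5 min pre-incubation; 665/615 nm TR-FRET ratio used to derive inhibition and IC50.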

The next assay deals with EGFR kinase (Homo sapiens (Human), UniProt P00533). Kind of assay: Inhibition of EGFR kinase activity (ULight-labeled JAK-1 (Tyr1023) peptide substrate). The note with it: EGFR kinase 0.35 nM, ATP 150 μM, 2 hours. It counts as biochemical. Here is the method: The assay for the inhibition of EGFR and HER2 kinase activity by small molecular compounds was carried out using the method as follows:
1) Dilution of the compounds
In a 96-well plate a, the compounds were diluted with DMSO using a 3-fold gradient dilution to form 11 concentrations, the 12th concentration is pure DMSO (as a positive control); and in a new 96-well plate b the above solutions were diluted 25 times with ultrapure water (DMSO concentration is 4%).
2) Transferring the compounds to 384-well plate
The compound solutions diluted with ultrapure water in the 96-well plate b above was transferred to the corresponding wells of a 384-well plate in duplicate.
3) Addition of 4×kinase solution: 2.5 μl of the above 4× kinase solution was taken using multichannel pipette and added to the corresponding reaction wells of the 384-well plate, mixed well and pre-reacted at room temperature for 5 minutes.
4) Addition of 2×substrate/ATP mixed solution: 5 μl of the above 2×substrate/ATP mixed solution was taken using multichannel pipette and added to the corresponding reaction wells of the 384-well plate.
5) Negative control: negative control wells were set in the 384-well plate, and 2.5 μl 4×substrate, 2.5 μl 4×enzyme solution, 2.5 μl 1×Kinase Assay Buffer and 2.5 μl ultrapure water containing 4% DMSO were added to each well.
6) Mixed by centrifugation and kept at room temperature for 2 hours in the dark.
7) Termination of the enzymatic reaction:
5 μl of the above 4× stop solution was pipetted to the corresponding wells of the 384-well plate, centrifuged and mixed, and reacted at room temperature for 5 minutes.
5 μl of the above 4× detection solution was pipetted into the corresponding wells of the 384-well plate, centrifuged and mixed, and reacted at room temperature for 1 hour.
9) The 384-well plate was placed into a microplate reader and the signal was detected using the corresponding program.
10) IC50 analysis: Well reading value=10000*EU665 value/EU615 value Inhibition rate=(reading value of positive control well−reading value of experimental well)/(reading value of positive control well−reading value of negative control well)*100% Corresponding IC50s can be calculated by entering the drug concentrations and the corresponding inhibition rates into GraphPad Prism 5.
Conditions of experiment for screening EGFR kinase inhibitory molecules:
The final concentration of EGFR kinase in the reaction system is 0.35 nM, and the final concentration of ATP is 150 μM, the final concentration of substrate ULight™-labeled JAK-1 (Tyr1023) Peptide is 100 nM, and the enzymatic reaction time is 2 hours.
The maximum final concentration of the compound in the reaction system is 2.5 μM, 11 concentrations were made with a 3-fold gradient dilution, and the minimal final concentration is 0.042 nM. The final concentration of DMSO is 1%.

The subject of a further assay is BT474 cells. The assay is described as follows: Inhibition of cell proliferation, BT474 (CCK-8, 72 h). It counts as cell-based. The note with it: Homo sapiens, BT-474, 72 h incubation. The procedure:
The assay for the inhibition of cell proliferation by small molecular compounds was carried out using the method as follows:
1. 600 μL pancreatin was added to a T75 cell culture flask, which was digested in a 37° C. incubator for about 1 min before 5 mL of DMEM complete culture solution was added, blew evenly, transferred to a 15 mL centrifuge tube, and centrifuged at 1000 rpm for 4 min;
2. The supernatant was removed and 5 mL DMEM complete culture solution was added, blew evenly, and 10 μL cell suspension was taken and mixed with 10 μL 0.4% Trypan Blue, and counted using a cell counter;
3. BT474 and HCC827 cell lines were seeded in 96-well plates at a cell density of 10,000 and 3000 cells/well/80 μL, respectively, and cultured overnight. Only sterile water was added to the 36 wells on the periphery of the 96-well plate without adding cells, and only the 60 wells in the center of the 96-well plate were used for cell assays and controls;
4. Dilution of compounds: the compounds were diluted with a 3-fold dilution to make 10 concentrations in total with an initial concentration of 10 mM;
5. 20 μL of different compounds with different concentrations were added to each well, and 20 μL of complete culture solution was added to the remaining wells. The final concentration of DMSO in each well is 0.25%;
6. After 72 h of incubation, 10 μL CCK-8 reagent was added to each well, and incubated at 37° C. for 1-2 h; and the OD value was read at 450 nm;
7. Cell survival rate (%)=[(As−Ab)/(Ac−Ab)]*100%
As: Assay well (medium containing cell, CCK-8, compound)
Ac: Control well (medium containing cell, CCK-8)
Ab: Blank well (CCK-8, medium without cell and compound)
8. The value was imported into Graphpad Prism5 software for the calculation of IC50s (compound concentration at which 50% maximum survival rate is observed).

HER2 kinase, sequence (P04626 23-1255): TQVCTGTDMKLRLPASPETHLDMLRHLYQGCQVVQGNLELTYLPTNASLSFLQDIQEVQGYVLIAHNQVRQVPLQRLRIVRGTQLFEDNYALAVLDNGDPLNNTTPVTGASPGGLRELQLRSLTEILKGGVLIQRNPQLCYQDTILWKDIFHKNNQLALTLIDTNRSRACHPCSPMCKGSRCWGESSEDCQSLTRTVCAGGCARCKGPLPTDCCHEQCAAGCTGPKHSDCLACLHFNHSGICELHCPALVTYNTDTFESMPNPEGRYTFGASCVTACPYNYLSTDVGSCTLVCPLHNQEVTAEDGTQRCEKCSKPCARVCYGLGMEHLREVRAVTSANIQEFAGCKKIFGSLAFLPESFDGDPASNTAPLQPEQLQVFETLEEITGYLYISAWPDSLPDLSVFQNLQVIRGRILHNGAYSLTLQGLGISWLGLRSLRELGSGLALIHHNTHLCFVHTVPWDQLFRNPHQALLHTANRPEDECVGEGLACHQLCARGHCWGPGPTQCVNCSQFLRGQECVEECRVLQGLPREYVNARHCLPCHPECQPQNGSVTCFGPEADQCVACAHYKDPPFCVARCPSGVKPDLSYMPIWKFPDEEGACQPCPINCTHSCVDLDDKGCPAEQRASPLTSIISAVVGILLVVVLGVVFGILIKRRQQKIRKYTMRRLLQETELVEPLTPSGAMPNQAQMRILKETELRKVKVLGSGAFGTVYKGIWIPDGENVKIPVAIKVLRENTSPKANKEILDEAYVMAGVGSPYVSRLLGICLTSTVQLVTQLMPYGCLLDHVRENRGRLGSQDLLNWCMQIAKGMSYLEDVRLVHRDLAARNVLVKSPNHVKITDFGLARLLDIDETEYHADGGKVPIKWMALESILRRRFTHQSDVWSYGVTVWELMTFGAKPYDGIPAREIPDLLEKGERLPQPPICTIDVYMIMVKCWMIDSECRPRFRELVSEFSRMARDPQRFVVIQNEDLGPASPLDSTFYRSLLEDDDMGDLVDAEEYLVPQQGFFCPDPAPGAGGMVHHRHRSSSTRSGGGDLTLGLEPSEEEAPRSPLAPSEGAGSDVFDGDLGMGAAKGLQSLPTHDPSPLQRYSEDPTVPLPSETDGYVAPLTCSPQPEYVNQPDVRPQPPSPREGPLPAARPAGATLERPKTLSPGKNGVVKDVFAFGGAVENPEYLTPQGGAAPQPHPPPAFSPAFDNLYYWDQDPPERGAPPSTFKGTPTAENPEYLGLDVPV
EGFR kinase, sequence (P00533 25-1210): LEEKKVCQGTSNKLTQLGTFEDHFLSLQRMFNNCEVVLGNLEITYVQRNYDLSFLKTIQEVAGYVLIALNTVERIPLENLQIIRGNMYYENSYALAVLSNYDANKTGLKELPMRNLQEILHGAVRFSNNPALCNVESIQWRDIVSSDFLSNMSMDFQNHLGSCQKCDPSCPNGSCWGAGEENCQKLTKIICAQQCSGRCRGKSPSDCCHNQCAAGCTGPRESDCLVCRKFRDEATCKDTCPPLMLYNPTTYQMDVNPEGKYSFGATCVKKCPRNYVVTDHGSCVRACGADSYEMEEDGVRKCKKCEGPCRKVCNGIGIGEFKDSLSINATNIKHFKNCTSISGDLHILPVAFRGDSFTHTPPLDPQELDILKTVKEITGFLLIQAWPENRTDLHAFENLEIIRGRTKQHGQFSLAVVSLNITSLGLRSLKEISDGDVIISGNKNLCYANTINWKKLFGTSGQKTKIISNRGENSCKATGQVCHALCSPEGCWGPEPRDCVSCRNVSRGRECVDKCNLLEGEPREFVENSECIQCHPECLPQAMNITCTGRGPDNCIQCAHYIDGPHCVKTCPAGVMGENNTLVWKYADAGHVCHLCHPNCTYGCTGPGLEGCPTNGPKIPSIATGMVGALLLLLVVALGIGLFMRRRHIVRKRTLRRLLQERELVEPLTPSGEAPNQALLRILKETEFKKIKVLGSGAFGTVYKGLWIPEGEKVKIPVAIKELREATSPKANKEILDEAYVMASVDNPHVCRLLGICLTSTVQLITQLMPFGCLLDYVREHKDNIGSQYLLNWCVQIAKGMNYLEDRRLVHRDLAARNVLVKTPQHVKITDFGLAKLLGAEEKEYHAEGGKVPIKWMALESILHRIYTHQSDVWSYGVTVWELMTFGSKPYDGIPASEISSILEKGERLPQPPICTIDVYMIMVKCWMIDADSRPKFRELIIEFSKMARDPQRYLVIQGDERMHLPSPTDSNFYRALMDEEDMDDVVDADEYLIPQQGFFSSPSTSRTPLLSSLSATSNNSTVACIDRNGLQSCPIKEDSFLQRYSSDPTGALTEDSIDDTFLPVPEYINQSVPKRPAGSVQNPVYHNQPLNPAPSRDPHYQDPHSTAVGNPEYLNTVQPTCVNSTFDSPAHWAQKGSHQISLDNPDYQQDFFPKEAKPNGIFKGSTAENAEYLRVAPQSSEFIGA

Consider `CN(C)C/C=C/C(=O)N1CCOc2c1ccc1ncnc(Nc3ccc(Oc4ccn5ncnc5c4)c(Cl)c3)c21` [Example 125, (E)-1-(10-((4-([1,2,4]triazolo[1,5-a]pyridin-7-yloxy)-3-chlorophenyl)amino)-2,3-dihydro-4H-[1,4]oxazino[2,3-f]quinazolin-4-yl)-4-(dimethylamino)but-2-en-1-one], for which the half-inhibitory concentration (IC50) against HER2 kinase was at most 50 nM; at EGFR kinase, 50 to 500 nM; in the assay with BT474 cells it was at most 50 nM.
Take `CN1CCN(C/C=C/C(=O)N2CCOc3c2ccc2ncnc(Nc4ccc(Oc5ccn6ncnc6c5)c(Cl)c4)c32)CC1` [Example 126, (E)-1-(10-((4-([1,2,4]triazolo[1,5-a]pyridin-7-yloxy)-3-chlorophenyl)amino)-2,3-dihydro-4H-[1,4]oxazino[2,3-f]quinazolin-4-yl)-4-(4-methylpiperazin-1-yl)but-2-en-1-one]: the IC50 on HER2 kinase, at EGFR kinase and with BT474 cells was at most 50 nM each time.
For the compound `CC(C)N(C)C/C=C/C(=O)N1CCOc2c1ccc1ncnc(Nc3ccc(Oc4ccn5ncnc5c4)c(Cl)c3)c21` [Example 127, (E)-1-(10-((4-([1,2,4]triazolo[1,5-a]pyridin-7-yloxy)-3-chlorophenyl)amino)-2,3-dihydro-4H-[1,4]oxazino[2,3-f]quinazolin-4-yl)-4-(isopropyl(methyl)amino)but-2-en-1-one], the concentration for half-maximal inhibition (IC50) is at most 50 nM against HER2 kinase, 50 to 500 nM on EGFR kinase and at most 50 nM in the assay with BT474 cells.
For `O=C(/C=C/CN1CCCCC1)N1CCOc2c1ccc1ncnc(Nc3ccc(Oc4ccn5ncnc5c4)c(Cl)c3)c21` [Example 128, (E)-1-(10-((4-([1,2,4]triazolo[1,5-a]pyridin-7-yloxy)-3-chlorophenyl)amino)-2,3-dihydro-4H-[1,4]oxazino[2,3-f]quinazolin-4-yl)-4-(piperidin-1-yl)but-2-en-1-one], the half-maximal inhibitory concentration (IC50) on HER2 kinase was at most 50 nM; against EGFR kinase it was 50 to 500 nM; with BT474 cells, at most 50 nM.
Regarding `CN(C/C=C/C(=O)N1CCOc2c1ccc1ncnc(Nc3ccc(Oc4ccn5ncnc5c4)c(Cl)c3)c21)C1CCC1` [Example 129, (E)-1-(10-((4-([1,2,4]triazolo[1,5-a]pyridin-7-yloxy)-3-chlorophenyl)amino)-2,3-dihydro-4H-[1,4]oxazino[2,3-f]quinazolin-4-yl)-4-(cyclobutyl(methyl)amino)but-2-en-1-one], the IC50 at HER2 kinase is at most 50 nM; against EGFR kinase, 50 to 500 nM; in the assay on BT474 cells, at most 50 nM.
`COCCN(C)C/C=C/C(=O)N1CCOc2c1ccc1ncnc(Nc3ccc(Oc4ccn5ncnc5c4)c(Cl)c3)c21` [Example 130, (E)-1-(10-((4-([1,2,4]triazolo[1,5-a]pyridin-7-yloxy)-3-chlorophenyl)amino)-2,3-dihydro-4H-[1,4]oxazino[2,3-f]quinazolin-4-yl)-4-((2-methoxyethyl)(methyl)amino)but-2-en-1-one]: the results for the half-maximal inhibitory concentration (IC50) against HER2 kinase, at EGFR kinase and in the assay with BT474 cells were at most 50 nM, 50 to 500 nM and at most 50 nM, respectively.
As for `CCN(CC)C/C=C/C(=O)N1CCOc2c1ccc1ncnc(Nc3ccc(Oc4ccn5ncnc5c4)c(Cl)c3)c21` [Example 131, (E)-1-(10-((4-([1,2,4]triazolo[1,5-a]pyridin-7-yloxy)-3-chlorophenyl)amino)-2,3-dihydro-4H-[1,4]oxazino[2,3-f]quinazolin-4-yl)-4-(diethylamino)but-2-en-1-one], the values for the IC50 against HER2 kinase, on EGFR kinase and in the assay with BT474 cells were at most 50 nM, 50 to 500 nM and at most 50 nM, respectively.
Turning to `Cc1cc(Nc2ncnc3ccc4c(c23)OCCN4C(=O)/C=C/CN2CCN(C)CC2)ccc1Oc1ccn2ncnc2c1` [Example 132, (E)-1-(10-((4-([1,2,4]triazolo[1,5-a]pyridin-7-yloxy)-3-methylphenyl)amino)-2,3-dihydro-4H-[1,4]oxazino[2,3-f]quinazolin-4-yl)-4-(4-methylpiperazin-1-yl)but-2-en-1-one], the IC50 on HER2 kinase is at most 50 nM; against EGFR kinase it was 50 to 500 nM; in the assay with BT474 cells, at most 50 nM.
